Source: US7785587B2, “Therapeutic methods for muscular or neuromuscular disorders” (Wyeth, priority 2003, dated 2010)

What was measured:
Format in all cases: in vivo, mouse
IL6 = test: Serum IL6 in mice treated with prednisone; details: separate cohort of mice treated with prednisone
Description: (§1) At the end of the study, mice were sacrificed and muscle mass was assessed by dissecting and weighing the gastrocnemius and quadriceps. To confirm biological activity of prednisone, sera from a separate cohort of mice were collected and analyzed for IL6 and IL1β (Ani Lyctics, Inc., Gaithersburg, Md.).

C57BL/10ScSn-mdx/j mice [1] = test: Total body weight of mdx mice treated 4 weeks with prednisone with or without JA-16 (Example 2); details: JA-16 60 mg/kg per week IP, prednisone 2 mg/kg SC 3 times a week
Description: (§2) Male C57BL/10ScSn-mdx/j and C57BL/10 (Jackson Laboratory, Bar Harbor, Me.). Mouse monoclonal anti-GDF-8 antibody JA-16, prednisone (P-9901, Sigma), or vehicle (peanut oil) was injected starting at age 5-7 weeks for 4 weeks. Mice were intraperitoneally (IP) injected with JA-16 at a dose of 60 mg/kg per week (double dosing at first week), or subcutaneously (SC) injected with prednisone at 2 mg/kg, 3 times a week. The body weight and grip strength were monitored before, during and after treatment. Results are shown in Table 3 and Table 4, respectively.

IL1β = test: Serum IL1β in mice treated with prednisone; details: separate cohort of mice treated with prednisone
Description: as §1

C57BL/10ScSn-mdx/j mice [2] = test: Gastrocnemius and quadriceps weight in mdx mice treated 4 weeks with prednisone with or without JA-16 (Example 2); details: end of 4-week study
Description: as §2, with “week.” for “week. The body weight and grip strength were monitored before, during and after treatment. Results are shown in Table 3 and Table 4, respectively.”
as §1

C57BL/10ScSn-mdx/j mice [3] = test: Grip strength of mdx mice treated 4 weeks with prednisone with or without JA-16 (Example 2); details: JA-16 60 mg/kg per week IP, prednisone 2 mg/kg SC 3 times a week
Description: as §2

C[C@]12C=CC(=O)C=C1CC[C@@H]1[C@@H]2C(=O)C[C@@]2(C)[C@H]1CC[C@]2(O)C(=O)CO [Prednisone, prednisone]
IL6 in sera (IL6): reduced | Total body weight (average ± SEM) (C57BL/10ScSn-mdx/j mice [1]; week 0 of trial): 17.6 ± 1.8 g | Total body weight (average ± SEM) (C57BL/10ScSn-mdx/j mice [1]; week 1 of trial): 20.9 ± 1.8 g | Total body weight (average ± SEM) (C57BL/10ScSn-mdx/j mice [1]; week 2 of trial): 24.2 ± 1.6 g | Total body weight (average ± SEM) (C57BL/10ScSn-mdx/j mice [1]; week 3 of trial): 24.7 ± 1.5 g | Total body weight (average ± SEM) (C57BL/10ScSn-mdx/j mice [1]; week 4 of trial): 25.9 ± 1.6 g | IL1β in sera (IL1β): reduced | Muscle weight (average ± SEM), Gastroc (C57BL/10ScSn-mdx/j mice [2]): 0.287 ± 0.023 g | Muscle weight (average ± SEM), Quad (C57BL/10ScSn-mdx/j mice [2]): 0.417 ± 0.029 g | Grip strength (average ± SEM) (C57BL/10ScSn-mdx/j mice [3]; week 0 of trial): 0.144 ± 0.010 lb | Grip strength (average ± SEM) (C57BL/10ScSn-mdx/j mice [3]; week 3 of trial): 0.177 ± 0.006 lb | Grip strength (average ± SEM) (C57BL/10ScSn-mdx/j mice [3]; week 4 of trial): 0.213 ± 0.011 lb
